# Results: patent publication US8080657B2, “Compounds of reverse turn mimetics and the use thereof” (Choongwae Pharma Corporation, priority 2008, dated 2011)
# Like-named read-outs stand apart in the source and are kept apart here.
# Tested on: Wnt signaling
# Test: TopFlash reporter gene bioassay in SW480 cells
# Format: cell-based
# [1] = Homo sapiens, SW480, TopFlash reporter gene assay, inhibition of Wnt signaling; read-out: RGA, IC50 (μM) TopF
# [2] = TopFlash reporter gene assay, inhibition of Wnt signaling; read-out: RGA, IC50 (μM) TopF
# [3] = Homo sapiens, SW480; read-out: RGA, IC50 (μM) TopF
IC50 [1] [µM],Compound,other results
2.42 ± 0.32,C=CCN1CC(=O)N2C(CN(Cc3cccc(-c4ccc(SC)cc4)n3)C(=O)[C@@H]2Cc2ccc(O)cc2)N1C(=O)NCc1ccccc1 (stereo partly shown) [compound 179],
2.42 ± 0.47,C=CCN1CC(=O)N2[C@@H](Cc3ccc(O)cc3)C(=O)N(Cc3cccnc3-c3ccc(OC)cc3)C[C@@H]2N1C(=O)NCc1ccccc1 [compound 180],
2.47 ± 0.37,C=CCN1CC(=O)N2[C@@H](Cc3ccc(O)cc3)C(=O)N(Cc3cccc(NS(C)(=O)=O)c3)C[C@@H]2N1C(=O)NCc1ccccc1 [compound 181],
2.48 ± 0.22,C=CCN1CC(=O)N2[C@@H](Cc3ccc(O)cc3)C(=O)N(Cc3cccc(C(=O)NOC)c3)C[C@@H]2N1C(=O)NCc1ccccc1 [compound 182],
52.5 ± 0.32,C=CCN1CC(=O)N2[C@@H](Cc3ccc(O)cc3)C(=O)N(Cc3cccc(C(=O)NC)c3)C[C@@H]2N1C(=O)NCc1ccccc1 [compound 183],
2.56 ± 0.29,C#Cc1ccc(CNC(=O)N2[C@H]3CN(Cc4cccc(OC)c4OC)C(=O)[C@H](Cc4ccc(O)cc4)N3C(=O)CN2CC=C)cc1 [compound 184],
2.66 ± 0.74,C=CCN1CC(=O)N2[C@@H](Cc3ccc(O)cc3)C(=O)N(Cc3cccc(-c4ccccc4)n3)C[C@@H]2N1C(=O)NCc1ccccc1 [compound 186],
2.67 ± 0.28,C=CCN1CC(=O)N2[C@@H](Cc3ccc(O)cc3)C(=O)N(Cc3cccc4ccn(-c5ccccn5)c34)C[C@@H]2N1C(=O)NCc1ccccc1 [compound 187],
2.67 ± 0.59,C=CCN1CC(=O)N2[C@@H](Cc3ccc(O)cc3)C(=O)N(Cc3ccccc3S(C)(=O)=O)C[C@@H]2N1C(=O)NCc1ccccc1 [compound 188],
2.81 ± 0.52,C=CCN1CC(=O)N2[C@@H](Cc3ccc(O)cc3)C(=O)N(Cc3cccc(-c4cccc(C#N)c4)n3)C[C@@H]2N1C(=O)NCc1ccccc1 [compound 191],
2.85 ± 0.79,C=CCN1CC(=O)N2[C@@H](CC3=CC(=O)NC3=O)C(=O)N(Cc3cccc4scnc34)C[C@@H]2N1C(=O)NCc1ccccc1 [compound 192],
2.86 ± 0.49,C=CCN1CC(=O)N2[C@@H](Cc3ccc(O)cc3)C(=O)N(Cc3ccc(OC)c(F)c3)C[C@@H]2N1C(=O)NCc1ccccc1 [compound 193],
2.89 ± 0.5,C=CCN1CC(=O)N2[C@@H](Cc3ccc(O)cc3)C(=O)N(Cc3cccc(C(=O)OCC)n3)C[C@@H]2N1C(=O)NCc1ccccc1 [compound 194],
20.9 ± 3.94,C=CCN1CC(=O)N2[C@@H](Cc3ccc(O)cc3)C(=O)N(Cc3csc4ccc(NC(N)=O)cc34)C[C@@H]2N1C(=O)NCc1ccccc1 [compound 195],
21.2 ± 2.15,C=CCN1CC(=O)N2[C@@H](Cc3ccc(O)cc3C)C(=O)N(Cc3ccc(F)cc3F)C[C@@H]2N1C(=O)NCc1ccccc1 [compound 196],
21.8 ± 3.69,C=CCN1CC(=O)N2[C@@H](Cc3ccc(O)cc3)C(=O)N(Cc3cccc(C(=O)N(C)C)n3)C[C@@H]2N1C(=O)NCc1ccccc1 [compound 197],
22.2 ± 5.69,C=CCN1CC(=O)N2[C@@H](Cc3ccc(O)cc3)C(=O)N(Cc3cccnc3-c3cccnc3)C[C@@H]2N1C(=O)NCc1ccccc1 [compound 198],
25.9 ± 3.38,C=CCN1CC(=O)N2[C@@H](Cc3ccc(O)cc3)C(=O)N(Cc3cccnc3N3CCC(N4CCCC4)CC3)C[C@@H]2N1C(=O)NCc1ccccc1 [compound 199],
25.9 ± 4.72,C=CCN1CC(=O)N2[C@@H](Cc3ccc(O)cc3)C(=O)N(Cc3csc4ccc(N(Cc5ccccc5)Cc5ccccc5)cc34)C[C@@H]2N1C(=O)NCc1ccccc1 [compound 200],
26.1 ± 7.1,C=CCN1CC(=O)N2[C@@H](Cc3ccc(O)cc3)C(=O)N(Cc3csc4cc(NC(N)=O)ccc34)C[C@@H]2N1C(=O)NCc1ccccc1 [compound 201],

# Second part, the molecule before the results:
Compound,IC50 [1] [µM],other results
C=CCOc1ccccc1CN1C[C@H]2N(C(=O)CN(CC=C)N2C(=O)NCc2ccccc2)[C@@H](Cc2ccc(O)cc2)C1=O [compound 145],1.96 ± 0.27,
C=CCN1CC(=O)N2[C@@H](Cc3ccc(O)cc3)C(=O)N(Cc3cccc(Oc4ccccc4)c3)C[C@@H]2N1C(=O)NCc1ccccc1 [compound 146],1.99 ± 0.12,
C=CCN1CC(=O)N2[C@@H](Cc3ccc(ON)cc3)C(=O)N(Cc3ccc(OC)c(Cl)c3)C[C@@H]2N1C(=O)NCc1ccccc1 [compound 147],1.99 ± 0.32,
C=CCN1CC(=O)N2[C@@H](Cc3ccc(O)cc3)C(=O)N(Cc3csc4c([N+](=O)[O-])cccc34)C[C@@H]2N1C(=O)NCc1ccccc1 [compound 148],,"IC50 (Homo sapiens, SW480, read-out: RGA, IC50 (μM) TopF): 10 ± 1.7 µM"
C=CCN1CC(=O)N2[C@@H](Cc3ccc(O)cc3)C(=O)N(C/C=C/c3ccccc3)C[C@@H]2N1C(=O)NCc1ccccc1 [compound 149],10.1 ± 2.38,
C=CCN1CC(=O)N2[C@@H](Cc3ccc(O)cc3)C(=O)N(Cc3cc(C(C)(C)C)cc(C(C)(C)C)c3OC)C[C@@H]2N1C(=O)NCc1ccccc1 [compound 150],10.2 ± 1.55,
C=CCN1CC(=O)N2[C@@H](Cc3ccc(OS(=O)(=O)NC)cc3)C(=O)N(Cc3ccc(F)cc3F)C[C@@H]2N1C(=O)NCc1ccccc1 [compound 151],10.2 ± 2.3,
C=CCN1CC(=O)N2[C@@H](Cc3ccc(O)cc3)C(=O)N(Cc3ccnc(C(N)=O)c3)C[C@@H]2N1C(=O)NCc1ccccc1 [compound 153],10.8 ± 1.97,
C=CCN1CC(=O)N2[C@@H](Cc3ccc(O)cc3)C(=O)N(Cc3ccc(OCCCCC)cc3)C[C@@H]2N1C(=O)NCc1ccccc1 [compound 154],11.8 ± 0.9,
C=CCN1CC(=O)N2[C@@H](Cc3ccc(O)cc3)C(=O)N(Cc3csc4cc(NC(=O)NC)ccc34)C[C@@H]2N1C(=O)NCc1ccccc1 [compound 155],11.8 ± 1.61,
C=CCN1CC(=O)N2[C@@H](Cc3ccc(O)cc3)C(=O)N(Cc3cccc(-c4ccc[nH]c4=O)c3)C[C@@H]2N1C(=O)NCc1ccccc1 [compound 156],12.2 ± 2.02,
C=CCN1CC(=O)N2[C@@H](Cc3ccc(O)cc3)C(=O)N(Cc3csc4cc(NC(=O)NC)ccc34)C[C@@H]2N1C(=O)NCc1ccccc1 [compound 157],,IC50 [2]: 12.4 ± 2.36 µM
C=CCN1CC(=O)N2[C@@H](Cc3ccc(O)cc3)C(=O)N(Cc3ccc(F)c4scnc34)C[C@@H]2N1C(=O)NCc1ccccc1F [compound 158],12.5 ± 2.66,
C=CCN1CC(=O)N2[C@@H](Cc3ccc(O)cc3)C(=O)N(Cc3cn(CCC)c4ccccc34)C[C@@H]2N1C(=O)NCc1ccccc1 [compound 159],14.1 ± 2.3,
C=CCN1CC(=O)N2[C@@H](Cc3ccc(O)cc3)C(=O)N(Cc3cccc(C(=O)NN)c3)C[C@@H]2N1C(=O)NCc1ccccc1 [compound 160],14.2 ± 2.05,
C=CCN1CC(=O)N2[C@@H](Cc3ccc(O)cc3)C(=O)N(Cc3cccc(OC)c3OS(=O)(=O)CCCCCCCC)C[C@@H]2N1C(=O)NCc1ccccc1 [compound 161],14.4 ± 2.77,
C=CCN1CC(=O)N2[C@@H](Cc3ccc(NC(N)=O)cc3)C(=O)N(Cc3cccc4scnc34)C[C@@H]2N1C(=O)NCc1ccccc1 [compound 162],15.1 ± 3.34,
C=CCN1CC(=O)N2[C@@H](Cc3ccc(O)cc3)C(=O)N(Cc3cc(C(C)(C)C)cc(C(C)(C)C)c3)C[C@@H]2N1C(=O)NCc1ccccc1 [compound 163],15.7 ± 1.87,

Compound,IC50 [1] [µM],other results
C=CCN1CC(=O)N2[C@@H](Cc3ccc(O)cc3)C(=O)N(Cc3ccccc3-n3cnnn3)C[C@@H]2N1C(=O)NCc1ccccc1 [compound 164],15.7 ± 3.22,
C=CCN1CC(=O)N2[C@@H](Cc3ccc(O)cc3)C(=O)N(Cc3cccnc3-c3ccccc3OC)C[C@@H]2N1C(=O)NCc1ccccc1 [compound 165],17.2 ± 4.11,
C=CCN1CC(=O)N2[C@@H](Cc3ccc(O)cc3)C(=O)N(Cc3cn(-c4cccc(F)c4)c4ccccc34)C[C@@H]2N1C(=O)NCc1ccccc1 [compound 166],17.5 ± 5.57,
C=CCN1CC(=O)N2[C@@H](Cc3ccc(O)cc3)C(=O)N(Cc3csc4c(NC(=O)OC)cccc34)C[C@@H]2N1C(=O)NCc1ccccc1 [compound 167],19.4 ± 3.4,
C=CCN1CC(=O)N2[C@@H](Cc3ccc(O)cc3)C(=O)N(Cc3cccc(C(N)=O)n3)C[C@@H]2N1C(=O)NCc1ccccc1 [compound 168],2.01 ± 0.2,
C=CCOc1cccc(CN2C[C@H]3N(C(=O)CN(CC=C)N3C(=O)NCc3ccccc3)[C@@H](Cc3ccc(O)cc3)C2=O)c1 [compound 169],2.01 ± 0.34,
C=CCN1CC(=O)N2[C@@H](Cc3ccc(O)cc3)C(=O)N(Cc3ccccc3S(=O)(=O)c3ccc(Cl)cc3)C[C@@H]2N1C(=O)NCc1ccccc1 [compound 170],2.07 ± 0.43,
C=CCN1CC(=O)N2[C@@H](Cc3ccc(O)cc3)C(=O)N(Cc3ccc(F)c4scnc34)C[C@@H]2N1C(=O)NCc1cccs1 [compound 171],,IC50 [2]: 2.1 ± 0.34 µM
C=CCN1CC(=O)N2[C@@H](Cc3ccc(OP(=O)(O)O)cc3)C(=O)N(Cc3cccc(OCCN4CCOCC4)c3)C[C@@H]2N1C(=O)NCc1ccccc1 [compound 172],,IC50 [3]: 2.21 ± 0.35 µM
C=CCN1CC(=O)N2[C@@H](Cc3ccc(O)cc3)C(=O)N(Cc3cccc(OC)c3OCCN3CCCCC3)C[C@@H]2N1C(=O)NCc1ccccc1 [compound 173],2.26 ± 0.16,
C=CCN1CC(=O)N2[C@@H](Cc3ccc(O)cc3)C(=O)N(Cc3ccc4ccn(S(=O)(=O)c5ccc(C)cc5)c4c3)C[C@@H]2N1C(=O)NCc1ccccc1 [compound 174],2.33 ± 0.64,
C=CCN1CC(=O)N2[C@@H](Cc3ccc(O)cc3)C(=O)N(Cc3ccc(OC)c(OC)c3)C[C@@H]2N1C(=O)NCc1ccccc1 [compound 175],2.36 ± 0.57,
C=CCN1CC(=O)N2[C@@H](Cc3ccc(O)cc3)C(=O)N(Cc3ccnc(-c4ccccc4)n3)C[C@@H]2N1C(=O)NCc1ccccc1 [compound 176],2.37 ± 0.22,
C=CCN1CC(=O)N2[C@@H](Cc3ccc(O)cc3)C(=O)N(Cc3cccc(Br)n3)C[C@@H]2N1C(=O)NCc1ccccc1 [compound 177],2.37 ± 0.35,
C=CCN1CC(=O)N2[C@@H](Cc3ccc(O)cc3)C(=O)N(Cc3ccc(F)c4scnc34)C[C@@H]2N1C(=O)NCCc1ccccc1 [compound 178],,IC50 [2]: 2.38 ± 0.75 µM
C=CCN1CC(=O)N2[C@@H](Cc3ccc(O)cc3)C(=O)N(Cc3csc4ccc(NC=O)cc34)C[C@@H]2N1C(=O)NCc1ccccc1 [compound 185],,IC50 [3]: 2.61 ± 0.19 µM
C=CCN1CC(=O)N2[C@@H](Cc3ccc(O)cc3)C(=O)N(Cc3cccc(C(=O)N4CCCC4)c3)C[C@@H]2N1C(=O)NCc1ccccc1 [compound 189],,IC50 [3]: 2.68 ± 0.48 µM
